In patent US20260028342A1, “ENHANCING ANTIMETASTASIS ACTIVITY USING TARGETED PROTEIN DEGRADATION” (THE UNIVERSITY OF NORTH CAROLINA AT CHAPEL HILL, priority 2022, published 2026):
Entries after “also recorded” stand apart in the source; their conditions may differ. Read-outs that look alike come from different tables or passages of the source.

What was measured:
[1] = system: PNC prevalence in HeLA cells; assay: Percentage of HeLa cells with PNCs after treatment (FIG. 7); format: cell-based
Text: PNC prevalence is correlated with metastatic potential and can be disrupted through modulation of the elongation factor eEF1A.

eEF1A2 [2] = molecular target: T1, eEF1A2 (Homo sapiens, UniProt Q05639); assay: Competition with anchored biotinylated metarrestin-eEF1A2 complex; format: binding; conditions: FIG. 3A
T1 construct: Compound 49 treatment for 20 hours reduced eEF1A2 by Western blot analysis; endogenous in cells
T1 sequence (Q05639 1-463): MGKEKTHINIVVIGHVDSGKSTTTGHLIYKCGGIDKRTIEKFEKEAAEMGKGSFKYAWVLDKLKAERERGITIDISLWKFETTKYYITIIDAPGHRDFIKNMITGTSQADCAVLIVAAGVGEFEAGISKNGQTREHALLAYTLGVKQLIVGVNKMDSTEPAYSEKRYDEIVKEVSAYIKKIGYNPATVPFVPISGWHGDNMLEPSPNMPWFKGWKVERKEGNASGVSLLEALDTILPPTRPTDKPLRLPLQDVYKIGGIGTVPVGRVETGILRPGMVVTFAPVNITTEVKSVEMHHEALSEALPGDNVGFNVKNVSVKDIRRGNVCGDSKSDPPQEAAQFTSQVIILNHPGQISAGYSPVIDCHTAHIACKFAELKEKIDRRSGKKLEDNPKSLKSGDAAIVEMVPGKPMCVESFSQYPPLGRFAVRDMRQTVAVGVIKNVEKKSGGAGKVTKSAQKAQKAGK
Text: (§1) FIGS. 3A-3E show metarrestin binding and cellular data. FIG. 3A presents data showing that metarrestin specifically binds eEF1A2, and increased eEF1A2 enhances PNCs and metastasis formation. […] Mice from both groups were harvested six weeks after implantation and subjected to necropsy. […] Histopathological images (H&E) of livers (black scale bar=250 μm, white scale bar=100 μm) are shown on the right. Insets depict representative metastatic lesions.
(§2) With respect to the metarrestin target eEF1A2, the biased expression of eEF1A2 in cancer cells over normal adult cells (except neuronal cells) was used to selectively target cancer cells. […] Increased eEF1A2 enhances PNC number per cell (FIG. 3C) and metastasis formation (FIG. 3E). […] Expression of eEF1A2 is associated with cancer metastasis and correlates with poor patient outcomes.

PANC1 [3] = assay: Survival of PANC1 tumor-bearing animals; format: in vivo, mouse; conditions: for animal survival, treatment started post-macrometastasis formation / animal survival, treatment started prior to macrometastasis formation: food pellets, 10 mg/kg daily; for animal survival, treatment started post-macrometastasis formation: start eight weeks post-inoculation, FIG. 2F; for animal survival, treatment started prior to macrometastasis formation: start four weeks post-inoculation, FIG. 2E; for organ tumor replacement at autopsy (liver, lung, pancreas): treatment after macrometastasis, versus regular food pellets, FIG. 2G
Experimental: (§3) FIGS. 2A-2F show metarrestin and various studies.
(§4) Using a high-content screen to measure reduction of PNC prevalence, noncytotoxic PNC inhibitor hit compounds were discovered such as metarrestin, (FIG. 2A). […] Metarrestin was further evaluated in xenograft models of PC3M (metastatic prostate cancer cell line) and in a breast cancer patient-derived xenograft (PDX, harvested from a lung metastasis site). […] When the survival of the PANC1 tumor-bearing animals was evaluated, two sets of experiments were performed to determine efficacy at two treatment starting points, either after (eight weeks post-inoculation) or prior to (four weeks post-inoculation) macrometastasis had been established.

[4] = system: PC3M (metastatic prostate cancer cell line); conditions: PC3M xenograft, reference [5]; cited from earlier work
migration and invasion = conditions: reference [5]; cited from earlier work
[5] = daily treatment for up to three months, animals, reference [5]; cited from earlier work
[6] = system: breast cancer patient-derived xenograft; conditions: PDX harvested from a lung metastasis site, reference [5]; cited from earlier work
eEF1A2 [7] = molecular target: T1, eEF1A2; conditions: similar treatment conditions, reference [5]; cited from earlier work
[8] = reference [29], cited from earlier work
PANC1 [9] = assay: Orthotopic mouse model with 3-D cultured PANC1 cells (metastasis); format: in vivo
Experimental: as §3, §4

PNC in HeLa cancer cells = assay: PNC inhibition: IC50 inhibiting PNC in cancer cells (HeLa); format: cell-based; conditions: for IC50: Homo sapiens, HeLa cancer cells, inhibiting PNC; for IC50 nucleoli.normal/IC50 PNC.cancer: ratio RPE1 nucleoli IC50 to HeLa PNC IC50; for fold more potent than metarrestin: PNC inhibition, versus metarrestin
Experimental: PNC inhibitory activity was determined using fluorescent imaging techniques known in the art, such as: a CellTiter-Glo® luminescence assay from Promega to determine cell viability and/or fluorescent imaging studies with an IN Cell Analyzer 1000 automated system in combination with a green fluorescent protein (GFP) tagged PNC localized complex.

eEF1A2 [10] = molecular target: T1, eEF1A2; assay: Thermal stability assay using PC3M cell lysate; format: binding; conditions: FIG. 3B
Text: as §1, §2

[11] = system: nucleoli in RPE1 normal cells; assay: IC50 disrupting nucleoli in normal cells (RPE1); format: cell-based; conditions: Homo sapiens, RPE-1
PNC in PC3M cells = assay: PNC disassembly in PC3M cells with eEF1A2 overexpression; format: cell-based; conditions: FIG. 3D
Text: as §1, §2

[12] = Large mammal dose-escalation studies; format: in vivo; conditions: overloading dosing
Text: Thus, the potential for dose-limiting neurological side effects could constrain the patient population to drug-resistant or late-stage individuals. However, cancer patient outcomes would generally greatly benefit from adjuvant or co-administration use of an anti-metastasis agent such as metarrestin at any stage of cancer. Therefore, in order to improve the cancer cell selectivity and reduce potential toxicity to normal cells, development of next generation metarrestin derivatives that selectively enhance drug efficacy against cancer cells over normal cells were needed.

eEF1A2 [13] = molecular target: T1, eEF1A2; assay: Western blot analysis of eEF1A2 protein levels; format: cell-based; set-up: dose or concentration left out as unconfirmed; conditions: actin loading control, vehicle as standard of one; preliminary
Text: FIGS. 6A and 6B show results from metarrestin-PROTAC studies.

In the case of `N=c1c2c(-c3ccccc3)c(-c3ccccc3)n(Cc3ccccc3)c2ncn1[C@H]1CC[C@H](OC(=O)CCOCCOCCOCCNc2cccc3c2C(=O)N(C2CCC(=O)NC2=O)C3=O)CC1` (stereo partly shown) [Compound 57], the “PNC prevalence (percentage of cells with PNCs)” value [1] is reported as “almost complete disruption of PNC prevalence” and the “PNC prevalence (percentage of cells with PNCs)” value ([1]; 0.1 μM) is reported as “measureable reduction in PNC prevalence”.
With `N=c1c2c(-c3ccccc3)c(-c3ccccc3)n(Cc3ccccc3)c2ncn1[C@H]1CC[C@H](O)CC1` [Metarrestin] the “competition of recombinant eEF1A2 binding to anchored biotinylated metarrestin” value (eEF1A2 [2]) was “effectively outcompeted”, the “animal survival, treatment started post-macrometastasis formation” value (PANC1 [3]; 10 mg/kg) was “significantly improved animal survival” and the “animal survival, treatment started post-macrometastasis formation” value (PANC1 [3]; listed as metarrestin, 10 mg/kg) was “effective at extending survival”. For the same compound, the “animal survival, treatment started prior to macrometastasis formation” value (PANC1 [3]) was “drastic animal survival advantages”, the “animal survival, treatment started prior to macrometastasis formation” value (PANC1 [3]; 10 mg/kg) was “completely prevented metastasis-induced death” and the “organ tumor replacement at autopsy (liver, lung, pancreas)” value (PANC1 [3]) was “did not show significant tumor replacement”. For the same compound, the “organ tumor replacement at autopsy (liver, lung, pancreas)” value (PANC1 [3]; listed as metarrestin) was “less tumors were present”, the organ metastasis [4] was “significant inhibition of organ metastasis” and the “in vitro anti-oncogenic properties” value (migration and invasion) was “migration and invasion inhibition”. The adverse effects [5] was “does not induce discernable adverse effects”, the metastatic tumor growth [6] was “metastatic tumor growth inhibition” and the eEF1A2 protein levels (eEF1A2 [7]) was “does not reduce the protein levels”. The half-life ([8]; allows once-a-day dosing) was “long”, the tissue distribution [8] was “good” and the “metastasis as organ/tumor ratio in liver and lung” value (PANC1 [9]; 5 mg/kg and 25 mg/kg, FIG. 2B) was “inhibits metastasis”. For the same compound, the “metastatic burden in lung and liver” value (PANC1 [9]; 25 mg/kg IP daily for four weeks) was “significantly reduced the metastatic burden”, the primary tumor growth (PANC1 [9]; 25 mg/kg IP daily for four weeks, data not shown) was “only modest reduction” and the “metastasis as metastatic deposits in liver and lung” value (PANC1 [9]; 25 mg/kg, FIG. 2C) was “inhibits metastasis”. The IC50 (PNC in HeLa cancer cells) was 0.36 µM, the “IC50 nucleoli.normal/IC50 PNC.cancer” value (PNC in HeLa cancer cells) was 6.25 and the “thermal stabilization of eEF1A2” value (eEF1A2 [10]) was “stabilized eEF1A; also recorded: stabilized eEF1A2”. For the same compound, the IC50 [11] was 2.5 µM, the “change of IC50 for PNC disassembly on eEF1A2 overexpression” value (PNC in PC3M cells) was “increased the IC50” and the seizures [12] was “reversible seizures”.
In the case of `N=c1c2c(-c3ccccc3)c(-c3ccccc3)n(Cc3ccccc3)c2ncn1[C@H]1CC[C@H](OC(=O)CCCNc2cccc3c2C(=O)N(C2CCC(=O)NC2=O)C3=O)CC1` (stereo partly shown) [Compound 56], the “PNC prevalence (percentage of cells with PNCs)” value [1] is reported as “almost complete disruption of PNC prevalence” and the “PNC prevalence (percentage of cells with PNCs)” value ([1]; 0.1 μM) is reported as “measureable reduction in PNC prevalence”.
For `N=c1c2c(-c3ccccc3)c(-c3ccccc3)n(Cc3cccc(CNC(=O)CCCCCNc4cccc5c4C(=O)N(C4CCC(=O)NC4=O)C5=O)c3)c2ncn1C1CCC(O)CC1` (stereo not shown) [Compound 46], the IC50 (PNC in HeLa cancer cells) was 0.11 µM, the “fold more potent than metarrestin” value (PNC in HeLa cancer cells) was “threefold” and the “IC50 nucleoli.normal/IC50 PNC.cancer” value (PNC in HeLa cancer cells) was 4.27. It also gave an IC50 [11] of 0.47 µM.
In the case of `O=C1CCC(N2C(=O)c3cccc(NCCCCCNC(=O)c4ccc(Cn5c(-c6ccccc6)c(-c6ccccc6)c6c(NC7CCC(O)CC7)ncnc65)cc4)c3C2=O)C(=O)N1` (stereo not shown) [Compound 49], the IC50 (PNC in HeLa cancer cells) is reported as 0.025 µM, the “fold more potent than metarrestin” value (PNC in HeLa cancer cells) is reported as 14 fold and the “IC50 nucleoli.normal/IC50 PNC.cancer” value (PNC in HeLa cancer cells) is reported as 4. For the same compound, the “eEF1A2 protein levels by Western blot” value (eEF1A2 [13]) was “significantly reduced; also recorded: significant reduction” and the IC50 [11] was 0.1 µM.
